Test results published in ChEMBL document CHEMBL1157967, “Triterpenoid saponins from the fruits of Caryocar villosum” (J Nat Prod, 2006).
Activity calls are given as the source filed them.

How the values were obtained:
Type in all cases: functional, organism-based
Escherichia coli = assay: Antibacterial activity against Escherichia coli at 50 ug by agar diffusion method
Staphylococcus aureus = assay: Antibacterial activity against Staphylococcus aureus at 50 ug by agar diffusion method
Pseudomonas aeruginosa = assay: Antibacterial activity against Pseudomonas aeruginosa at 50 ug by agar diffusion method
[1] = test system: Mycolicibacterium smegmatis; assay: Antibacterial activity against Mycobacterium smegmatis at 50 ug by agar diffusion method
Enterococcus faecalis = assay: Antibacterial activity against Enterococcus faecalis at 50 ug by agar diffusion method

Measured: Activity

CC1(C)CC[C@]2(C(=O)O[C@@H]3O[C@H](CO)[C@@H](O)[C@H](O)[C@H]3O)CC[C@]3(C)C(=CC[C@@H]4[C@@]5(C)C[C@H](O)[C@H](O[C@@H]6O[C@H](C(=O)O)[C@@H](O)[C@H](O[C@@H]7O[C@H](CO)[C@H](O)[C@H](O)[C@H]7O)[C@H]6O)C(C)(C)[C@@H]5CC[C@]43C)[C@@H]2C1
inactive: all assays above

CC1(C)CC[C@]2(C(=O)O[C@@H]3O[C@H](CO)[C@@H](O)[C@H](O)[C@H]3O)CC[C@]3(C)C(=CC[C@@H]4[C@@]5(C)C[C@H](O)[C@H](O[C@@H]6O[C@H](C(=O)O)[C@@H](O)[C@H](O[C@@H]7O[C@H](CO)[C@H](O[C@@H]8O[C@H](CO)[C@H](O)[C@H](O[C@@H]9O[C@H](CO)[C@H](O)[C@H](O[C@@H]%10OC[C@@H](O)[C@H](O)[C@H]%10O)[C@H]9O)[C@H]8O)[C@H](O)[C@H]7O)[C@H]6O)C(C)(C)[C@@H]5CC[C@]43C)[C@@H]2C1
inactive: all assays above

CC1(C)CC[C@]2(C(=O)O)CC[C@]3(C)C(=CC[C@@H]4[C@@]5(C)CC[C@H](O[C@@H]6O[C@H](CO)[C@@H](O)[C@H](O[C@@H]7O[C@H](CO)[C@H](O)[C@H](O)[C@H]7O)[C@H]6O)[C@@](C)(CO)[C@@H]5CC[C@]43C)[C@@H]2C1
inactive: all assays above

CC1(C)CC[C@]2(C(=O)O[C@@H]3O[C@H](CO)[C@@H](O)[C@H](O)[C@H]3O)CC[C@]3(C)C(=CC[C@@H]4[C@@]5(C)CC[C@H](O[C@@H]6O[C@H](CO)[C@H](O)[C@H](O)[C@H]6O[C@@H]6O[C@H](CO)[C@@H](O)[C@H](O)[C@H]6O)[C@@](C)(CO)[C@@H]5CC[C@]43C)[C@@H]2C1
inactive: all assays above

CC1(C)CC[C@]2(C(=O)O)CC[C@]3(C)C(=CC[C@@H]4[C@@]5(C)C[C@H](O)[C@H](O[C@@H]6O[C@H](CO)[C@@H](O)[C@H](O[C@@H]7O[C@H](CO)[C@H](O)[C@H](O)[C@H]7O)[C@H]6O)[C@@](C)(CO)[C@@H]5CC[C@]43C)[C@@H]2C1
inactive: all assays above
